Results as given in ChEMBL document CHEMBL1201862, “PubChem BioAssay data set” (2004).
Calls of active or inactive are those of the source.

Tests used:
[1] = biological target: Glyceraldehyde-3-phosphate dehydrogenase (Homo sapiens, UniProt P04406)
[2] = biological target: T1, Mannose-6-phosphate isomerase (Homo sapiens, UniProt P34949); test: human PMI inhibitors, high substrate, primary screen, biochemical, fluorescence intensity, high mannose 6-phosphate (AID 1220)
T1 sequence (P34949 whole entry): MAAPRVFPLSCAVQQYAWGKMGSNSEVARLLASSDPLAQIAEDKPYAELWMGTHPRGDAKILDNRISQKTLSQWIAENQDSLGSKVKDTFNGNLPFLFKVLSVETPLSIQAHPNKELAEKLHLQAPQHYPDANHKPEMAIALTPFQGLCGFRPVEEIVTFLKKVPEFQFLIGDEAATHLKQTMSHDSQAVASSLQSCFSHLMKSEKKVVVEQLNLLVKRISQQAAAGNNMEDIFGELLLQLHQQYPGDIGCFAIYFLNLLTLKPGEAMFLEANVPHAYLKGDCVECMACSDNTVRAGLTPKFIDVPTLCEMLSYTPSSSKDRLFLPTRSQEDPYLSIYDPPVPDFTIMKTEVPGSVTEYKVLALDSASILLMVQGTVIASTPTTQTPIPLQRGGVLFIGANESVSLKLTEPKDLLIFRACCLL

[3] = P. falciparum Dd2 growth inhibitors, dose response, SYBR Green, cherry-picked samples (AID 1159567); assay type: functional, cell-based
Protein RecA = biological target: T2, Protein RecA (Mycobacterium tuberculosis, UniProt P9WHJ3); test: Fluorescence Cell-Free Homogeneous Dose Retest to Identify Inhibitors of RecA-Intein Splicing Activity. [Related pubchem assays (depositor defined):AID2097, AID2223, AID489010, AID492950]; assay type: functional
T2 sequence (P9WHJ3 whole entry): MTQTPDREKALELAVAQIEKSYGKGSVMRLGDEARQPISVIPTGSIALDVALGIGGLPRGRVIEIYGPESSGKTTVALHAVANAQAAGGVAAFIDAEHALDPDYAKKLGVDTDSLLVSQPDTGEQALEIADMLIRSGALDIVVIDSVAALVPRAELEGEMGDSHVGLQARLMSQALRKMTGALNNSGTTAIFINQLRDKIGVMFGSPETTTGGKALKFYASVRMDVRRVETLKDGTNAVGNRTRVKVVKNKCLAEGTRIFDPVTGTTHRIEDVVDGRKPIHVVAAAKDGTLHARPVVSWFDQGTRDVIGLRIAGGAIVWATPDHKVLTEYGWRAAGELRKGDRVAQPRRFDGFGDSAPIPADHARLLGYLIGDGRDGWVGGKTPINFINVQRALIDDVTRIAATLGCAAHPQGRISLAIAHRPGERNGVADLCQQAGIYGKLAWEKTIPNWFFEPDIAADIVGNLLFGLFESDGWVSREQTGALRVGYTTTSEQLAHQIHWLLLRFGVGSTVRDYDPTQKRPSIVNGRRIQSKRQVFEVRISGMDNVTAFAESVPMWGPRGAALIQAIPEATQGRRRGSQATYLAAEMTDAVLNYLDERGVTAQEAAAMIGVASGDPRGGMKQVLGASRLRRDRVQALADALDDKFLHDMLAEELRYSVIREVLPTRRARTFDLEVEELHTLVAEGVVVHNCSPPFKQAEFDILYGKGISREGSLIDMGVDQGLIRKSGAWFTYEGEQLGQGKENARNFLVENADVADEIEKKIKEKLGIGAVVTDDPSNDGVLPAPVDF

[4] = system: Streptococcus sp. 'group A'; test: growth inhibition of control SK(-) GAS strain, dose response, counter-screen for streptokinase expression inhibitor project, luminescence, kanamycin, BacTiterGlo, confirmation (AID 1900); assay type: functional, organism-based
Streptokinase A = biological target: T3, Streptokinase A (Streptococcus pyogenes serotype M1, UniProt P10520); test: S. pyogenes streptokinase expression inhibitors, potency, dose response, plasminogen activation absorbance, OD405 (AID 1914); assay type: functional, Streptococcus pyogenes M1 GAS;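 note: secreted streptokinase activity via plasminogen activation per viability signal from cell pellet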
T3 sequence (P10520 whole entry): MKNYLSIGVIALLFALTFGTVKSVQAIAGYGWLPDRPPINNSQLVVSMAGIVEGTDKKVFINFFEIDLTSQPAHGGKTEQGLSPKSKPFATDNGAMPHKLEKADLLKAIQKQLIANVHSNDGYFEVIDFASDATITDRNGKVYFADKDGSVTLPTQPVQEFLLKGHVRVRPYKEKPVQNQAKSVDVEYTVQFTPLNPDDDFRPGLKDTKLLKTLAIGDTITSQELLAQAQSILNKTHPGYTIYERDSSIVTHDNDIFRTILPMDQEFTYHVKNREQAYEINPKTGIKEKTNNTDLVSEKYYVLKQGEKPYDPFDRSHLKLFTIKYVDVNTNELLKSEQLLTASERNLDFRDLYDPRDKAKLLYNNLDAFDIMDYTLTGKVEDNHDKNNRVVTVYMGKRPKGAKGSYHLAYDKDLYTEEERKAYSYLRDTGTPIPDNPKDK

Streptococcus = test: Group A Streptococcus viability loss, dose response, counter-screen for streptokinase expression inhibitor project, luminescence, BacTiterGlo (AID 1915); assay type: functional, organism-based;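 note: potency for reduction of bacterial viability or growth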
[5] = biological target: T4, Replicative DNA helicase DnaB (Mycobacterium tuberculosis, UniProt P9WMR3); test: DnaB intein splicing inhibitors, dose response, biochemical, cell-free fluorescence (AID 449749); assay type: functional
T4 sequence (P9WMR3 whole entry): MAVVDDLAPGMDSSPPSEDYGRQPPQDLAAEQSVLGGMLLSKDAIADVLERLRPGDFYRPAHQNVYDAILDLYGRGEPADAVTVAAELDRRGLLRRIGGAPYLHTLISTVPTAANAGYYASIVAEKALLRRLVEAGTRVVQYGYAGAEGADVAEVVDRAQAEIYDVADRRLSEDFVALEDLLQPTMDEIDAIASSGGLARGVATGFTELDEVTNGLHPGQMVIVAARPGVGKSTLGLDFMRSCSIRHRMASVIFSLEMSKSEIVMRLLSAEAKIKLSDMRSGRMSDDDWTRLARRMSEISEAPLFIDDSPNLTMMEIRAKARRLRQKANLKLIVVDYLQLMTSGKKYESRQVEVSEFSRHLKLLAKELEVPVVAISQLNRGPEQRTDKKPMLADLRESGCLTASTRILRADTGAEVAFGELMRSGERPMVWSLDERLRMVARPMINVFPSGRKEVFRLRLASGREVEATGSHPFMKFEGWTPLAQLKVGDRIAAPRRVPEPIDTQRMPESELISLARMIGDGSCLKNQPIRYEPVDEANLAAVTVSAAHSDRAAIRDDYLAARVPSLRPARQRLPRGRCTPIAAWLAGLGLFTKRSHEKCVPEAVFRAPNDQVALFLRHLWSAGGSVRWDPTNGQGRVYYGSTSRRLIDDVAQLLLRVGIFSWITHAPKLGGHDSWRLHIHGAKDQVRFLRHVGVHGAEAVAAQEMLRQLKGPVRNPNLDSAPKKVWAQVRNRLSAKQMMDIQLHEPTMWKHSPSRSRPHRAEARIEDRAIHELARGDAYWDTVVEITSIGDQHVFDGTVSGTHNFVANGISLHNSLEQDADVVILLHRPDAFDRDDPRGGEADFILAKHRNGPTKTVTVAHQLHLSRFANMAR

[6] = biological target: T5, Ubiquitin-conjugating enzyme E2 N (Homo sapiens, UniProt P61088); assay type: functional;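 note: Dose-response confirmation in a TR-FRET assay detecting UBC13-driven polyubiquitin chain formation, inhibition measured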
T5 sequence (P61088 whole entry): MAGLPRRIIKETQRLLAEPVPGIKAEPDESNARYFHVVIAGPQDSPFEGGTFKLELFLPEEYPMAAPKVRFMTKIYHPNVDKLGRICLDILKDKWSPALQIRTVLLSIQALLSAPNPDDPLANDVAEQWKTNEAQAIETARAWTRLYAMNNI

cells [7] = assay type: functional, cell-based
cells [8] = assay type: functional, cell-based; remark: listed apart in the source
[9] = Luminescence Cell-Based Dose Response HTS to Identify Activators of Luciferase Translation or Activity in H4 […] Cells. [Related pubchem assays: 1829 (Project Summary), 1814 (Primary HTS)]; assay type: functional
H4 = test: Luminescence Cell-Based Dose Response HTS to Identify Activators of 5'UTR Stem-Loop Driven Prion Protein mRNA Translation in H4 Neuroglioblastoma Cells. [Related pubchem assays: 1829 (Project Summary), 1814 (Primary HTS)]; assay type: functional; details: Homo sapiens
[10] = biological target: T6, Heat shock factor protein 1 (Mus musculus, UniProt P38532); test: inhibition of MG132-induced HSE-luciferase signal, confirmation, cell-based, NIH3T3, luminescence, dose retest (AID 2382); assay type: functional;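 note: NIH3T3 fibroblasts with HSF1-driven luciferase reporter stressed by proteasome inhibitor MG132; luminescence from HSF1-driven luciferase expression after 8 hours of MG132 stress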
T6 sequence (P38532 whole entry): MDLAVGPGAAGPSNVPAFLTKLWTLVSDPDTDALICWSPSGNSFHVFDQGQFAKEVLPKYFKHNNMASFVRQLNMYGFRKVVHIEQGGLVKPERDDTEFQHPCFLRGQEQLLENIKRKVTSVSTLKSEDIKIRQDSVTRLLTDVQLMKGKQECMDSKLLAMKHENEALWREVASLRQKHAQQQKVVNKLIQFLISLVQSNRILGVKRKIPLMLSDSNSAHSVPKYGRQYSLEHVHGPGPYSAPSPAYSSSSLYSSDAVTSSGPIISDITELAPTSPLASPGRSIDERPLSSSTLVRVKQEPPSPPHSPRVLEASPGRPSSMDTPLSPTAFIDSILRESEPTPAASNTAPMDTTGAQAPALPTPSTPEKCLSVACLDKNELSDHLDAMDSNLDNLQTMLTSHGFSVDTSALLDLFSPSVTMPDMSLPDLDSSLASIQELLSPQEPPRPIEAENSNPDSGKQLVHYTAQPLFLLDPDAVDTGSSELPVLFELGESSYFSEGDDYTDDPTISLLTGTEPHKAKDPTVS

Cytochrome P450 2C9 = Cytochrome P450 2C9 (Homo sapiens, UniProt P11712)
Sequence of Cytochrome P450 2C9 (P11712 whole entry): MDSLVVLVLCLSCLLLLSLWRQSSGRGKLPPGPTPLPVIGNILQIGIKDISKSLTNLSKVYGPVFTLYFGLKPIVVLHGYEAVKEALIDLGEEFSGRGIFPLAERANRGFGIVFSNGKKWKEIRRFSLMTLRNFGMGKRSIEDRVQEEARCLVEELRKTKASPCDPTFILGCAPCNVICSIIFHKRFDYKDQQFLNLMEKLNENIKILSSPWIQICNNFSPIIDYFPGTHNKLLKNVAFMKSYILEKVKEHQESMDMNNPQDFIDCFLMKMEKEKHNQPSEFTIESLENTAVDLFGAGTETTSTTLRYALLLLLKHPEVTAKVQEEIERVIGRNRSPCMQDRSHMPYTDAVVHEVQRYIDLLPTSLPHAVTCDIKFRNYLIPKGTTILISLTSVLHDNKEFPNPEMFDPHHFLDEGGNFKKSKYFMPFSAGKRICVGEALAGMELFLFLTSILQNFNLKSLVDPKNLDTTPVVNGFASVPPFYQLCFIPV

[11] = Luminescence Cell-Based Dose Retest to Confirm Inhibitors of Cancer Stem Cells. [Related pubchem assays (depositor defined):AID2717, AID2721]; assay type: functional; details: Homo sapiens

Sequence of Glyceraldehyde-3-phosphate dehydrogenase (P04406 whole entry): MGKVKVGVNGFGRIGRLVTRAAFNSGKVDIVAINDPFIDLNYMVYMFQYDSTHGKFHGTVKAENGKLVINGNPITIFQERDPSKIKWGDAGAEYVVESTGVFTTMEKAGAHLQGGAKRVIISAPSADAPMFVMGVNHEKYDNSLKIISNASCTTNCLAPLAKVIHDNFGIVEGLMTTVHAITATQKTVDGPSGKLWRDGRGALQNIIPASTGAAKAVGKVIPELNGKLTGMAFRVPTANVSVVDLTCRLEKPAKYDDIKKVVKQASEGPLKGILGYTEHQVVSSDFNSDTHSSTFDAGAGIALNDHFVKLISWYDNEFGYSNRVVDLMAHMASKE

## O=C(NCCCCO)c1cc(-c2ccc(Cl)cc2Cl)n[nH]1
[1]
  IC50: > 10 µM (inconclusive)

## COc1ccc(NC(=O)CSc2nc3c(c(-c4cccs4)c2C#N)CN(C)CC3)cc1OC
[2]
  IC50: > 50 µM (not active)

## N#Cc1cccc(-c2ccc3c(c2)[C@@H]2[C@@H](CCN2Cc2cncnc2)[C@H](CO)N3)c1
[3]
  AC50: 6.32 µM (active)

## CN1c2ccccc2C(C)(C)C12C=Nc1c(ccc3ccccc13)O2 (stereo not drawn)
[2]
  IC50: > 50 µM (not active)
Protein RecA
  EC50: 14.4 µM (active)
[4]
  EC50: 3.92 µM (active)
Streptokinase A
  EC50: 24 µM (active)
Streptococcus
  EC50: > 150 µM (not active)
[5]
  AC50: 32.4 µM (active)

## NC[C@H](Cc1ccccc1)NCCc1cc(C(F)(F)F)cc(C(F)(F)F)c1
[6]
  IC50: > 20 µM (inactive)

## CN(C)C1=C(Cl)C(=O)N(c2ccc(C(F)(F)F)cc2)C1=O
[1]
  IC50: > 50 µM (inconclusive)

## COc1ccc(OC)c(CNC(=O)C2CCCN(S(=O)(=O)N3CCC(C)CC3)C2)c1 (stereo not drawn)
Cells [7]
  EC50: > 350 µM (not active)
Cells [8]
  EC50: > 350 µM (not active)

## COc1cccc(CN2C[C@@H]3N[C@H](C2)[C@H]3c2ccc(-c3ccncc3)cc2)c1
[3]
  AC50: 7.31 µM (active)

## C/C=C/c1ccc([C@@H]2[C@H](CO)N(CC3CC3)C23CN(C(=O)c2ccc4c(c2)OCO4)C3)cc1
[3]
  AC50: 4.44 µM (active)

## CCCC#Cc1ccc2c(c1)[C@@H]1[C@@H](CCN1S(=O)(=O)c1ccccc1C)[C@@H](CO)N2
[3]
  AC50: 7.51 µM (active)

## NS(=O)(=O)c1ccc(NC(=O)c2ccc(CSc3ccccc3)o2)cc1
Cells [7]
  EC50: > 350 µM (not active)
Cells [8]
  EC50: > 350 µM (not active)

## CN(C)/N=C/C=C1\CCC/C(=C/c2cccs2)C1=O
[9]
  EC50: 0.452 µM (active)
Cells [7]
  EC50: 5.27 µM (active)
H4
  EC50: > 120 µM (not active)
Cells [8]
  EC50: > 350 µM (not active)

## COC(=O)Nc1ccc(=O)n(Cc2c(Cl)cccc2Cl)c1
Cells [7]
  EC50: > 350 µM (not active)
Cells [8]
  EC50: > 350 µM (not active)

## Cc1cc(/C=N/N2CCN(C)CC2)c(C)n1-c1ccc(Cl)cc1
Cells [7]
  EC50: > 350 µM (not active)
Cells [8]
  EC50: > 350 µM (not active)

## Cn1nc(N)c2c(-c3ccccc3)c(C#N)c(N)nc21
[10]
  EC50: > 195 µM (not active)
[6]
  IC50: > 20 µM (inactive)

## O=C(Cc1c[nH]c2ccccc12)OCC(=O)c1ccccc1
Cytochrome P450 2C9
  AC50: inconclusive

## COc1ccc(S(=O)(=O)Nc2cccnc2)c(OC)c1
[1]
  IC50: > 100 µM (not active)

## COc1ccccc1C#Cc1ccc([C@@H]2[C@H](C#N)N(C(=O)C3CCCC3)[C@H]2CO)cc1
[3]
  AC50: 5.17 µM (active)

## COc1ccc(-n2c(=S)[nH]c3sc4c(c3c2=O)CCc2ccccc2-4)cc1
[2]
  IC50: 25.7 µM (active)

## Cc1ccc(C)c(NC(=O)CN(C)C(=O)Cc2coc3cc(C)c(C)cc23)c1
Cells [7]
  EC50: > 350 µM (not active)
Cells [8]
  EC50: > 350 µM (not active)

## COc1cc(NC(=S)Nc2cccnc2)cc(OC)c1
[2]
  IC50: > 50 µM (not active)

## CCC(=O)N1[C@H](CO)[C@@H](c2ccccc2-c2cccc(C)c2)[C@@H]1C#N
[3]
  AC50: > 42 µM (inactive)

## Cc1cc(N2CCN(C)CC2)nc2ccc(NC(=S)N3CCN(c4ccc(F)cc4)CC3)cc12
[6]
  IC50: > 20 µM (inactive)
[11]
  AC50: 5.34 µM (active)
